In test [1] the target is T1, ERRα (Homo sapiens, UniProt P11474).
T1 construct: expressed in transfected cells; host or cells: HEK293
T1 sequence (P11474 1-423): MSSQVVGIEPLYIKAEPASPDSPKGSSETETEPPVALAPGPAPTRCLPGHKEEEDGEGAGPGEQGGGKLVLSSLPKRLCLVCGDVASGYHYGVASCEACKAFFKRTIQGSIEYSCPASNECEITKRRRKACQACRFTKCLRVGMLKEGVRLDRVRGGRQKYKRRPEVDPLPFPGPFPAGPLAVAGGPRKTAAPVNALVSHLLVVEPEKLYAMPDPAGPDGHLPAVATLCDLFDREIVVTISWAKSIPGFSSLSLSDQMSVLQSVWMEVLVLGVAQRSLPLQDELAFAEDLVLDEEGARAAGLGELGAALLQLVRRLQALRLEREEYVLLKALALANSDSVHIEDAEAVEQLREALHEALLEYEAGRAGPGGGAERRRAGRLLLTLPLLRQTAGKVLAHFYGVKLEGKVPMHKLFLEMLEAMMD
The test can be described thus: ERRE luciferase reporter assay in HEK293 cells transfected with pcDNA3.1 ERRα. Set-up: key to EC50 (ERRα) μM: * <1 μM; ** 1-5 μM; *** >5 μM; i.a. (inactive). The class given is cell-based. The settings on record: HEK293 cells transfected with ERRE reporter construct and pcDNA3.1 ERRα; compound for 24 hours; luciferase activity. As for the experimental part: (§1) HEK293 cells were maintained in Dulbecco's modified Eagles medium (DMEM) supplemented with 10% fetal bovine serum at 37° C. under […]. […] Cells were transfected with ERRE reporter construct and pcDNA3.1 ERRα or ERRγ. Twenty-four-hours post-transfection, the cells were treated with vehicle or compound (various concentrations) for 24 hours (4 wells per dose). Luciferase activity was measured using the One-Glo Tox luciferase reporter assay system (Promega) and EC50s were calculated using GraphPad Prism software.

In test [2] the target is T2, ERRγ (Homo sapiens, UniProt P62508).
T2 construct: expressed in transfected cells; host or cells: HEK293
T2 sequence (P62508 1-458): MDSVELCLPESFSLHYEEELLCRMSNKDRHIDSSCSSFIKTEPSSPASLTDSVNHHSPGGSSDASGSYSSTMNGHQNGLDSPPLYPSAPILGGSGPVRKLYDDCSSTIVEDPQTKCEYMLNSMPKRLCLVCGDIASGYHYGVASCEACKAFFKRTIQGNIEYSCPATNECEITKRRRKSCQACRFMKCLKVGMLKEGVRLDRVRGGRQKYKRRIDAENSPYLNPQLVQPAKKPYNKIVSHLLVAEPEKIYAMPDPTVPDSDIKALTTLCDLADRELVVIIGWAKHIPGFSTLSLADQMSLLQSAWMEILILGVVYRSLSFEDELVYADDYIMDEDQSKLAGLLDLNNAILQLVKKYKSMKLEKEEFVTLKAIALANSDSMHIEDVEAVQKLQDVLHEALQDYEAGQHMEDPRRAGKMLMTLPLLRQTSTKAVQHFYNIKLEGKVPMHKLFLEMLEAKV
The test can be described thus: ERRE luciferase reporter assay in HEK293 cells transfected with pcDNA3.1 ERRγ. The class given is cell-based. Also on record: key to EC50 (ERRγ) μM: * <1 μM; ** 1-5 μM; *** >5 μM; i.a. (inactive). The conditions noted are these: HEK293 cells transfected with ERRE reporter construct and pcDNA3.1 ERRγ; compound for 24 hours; luciferase activity. As for the experimental part:
as §1
On the technique in general: Reporter assays use an easily measured gene product as a stand-in for the process of interest.

As to `FC(F)(F)c1ccc(-c2nnc(-c3ccccc3)o2)cc1` [Entry 43, 2-phenyl-5-(4-(trifluoromethyl)phenyl)-1,3,4-oxadiazole], the concentration giving a half-maximal response (EC50) in test [1] and in test [2] was 1000 to 5000 nM throughout.

`FC(F)(F)c1ccc(-c2nnc(-c3ccco3)o2)cc1` [Entry 44, 2-(furan-2-yl)-5-(4-(trifluoromethyl)phenyl)-1,3,4-oxadiazole]: the EC50 in test [1] and in test [2] was 1000 to 5000 nM throughout.

For the compound `Cc1ccc(-c2nnc(-c3ccc(C(F)(F)F)cc3)o2)o1` [Entry 45, 2-(5-methylfuran-2-yl)-5-(4-(trifluoromethyl)phenyl)-1,3,4-oxadiazole], the figures for the 50% effective concentration (EC50) in test [1] and in test [2] were 1000 to 5000 nM and above 5000 nM, respectively.

Take `FC(F)(F)c1ccc(-c2nnc(-c3cccs3)o2)cc1` [Entry 46, 2-(thiophen-2-yl)-5-(4-(trifluoromethyl)phenyl)-1,3,4-oxadiazole]: the EC50 in test [1] and in test [2] was 1000 to 5000 nM in each case.

Take `FC(F)(F)c1ccc(-c2nnc(-c3ccnc4ccccc34)o2)cc1` [Entry 47, 2-(quinolin-4-yl)-5-(4-(trifluoromethyl)phenyl)-1,3,4-oxadiazole]: the concentration for a half-maximal effect (EC50) in test [1] and in test [2] was above 5000 nM throughout.

In the case of `FC(F)(F)c1ccc(-c2nnc(-c3ccc4ccccc4n3)o2)cc1` [Entry 48, 2-(quinolin-2-yl)-5-(4-(trifluoromethyl)phenyl)-1,3,4-oxadiazole], the “EC50 (ERRα) μM” value in test [1] was “i.a”. Further, in test [2], the “EC50 (ERRγ) μM” value is “i.a”.

Take `FC(F)(F)c1ccc(-c2nnc(-c3ccccn3)o2)cc1` [Entry 49, 2-(pyridin-2-yl)-5-(4-(trifluoromethyl)phenyl)-1,3,4-oxadiazole]: the EC50 in test [1] and in test [2] was below 1000 nM in each case.

With `O=[N+]([O-])c1ccccc1-c1nnc(-c2ccc(C(F)(F)F)cc2)o1` [Entry 50, 2-(2-nitrophenyl)-5-(4-(trifluoromethyl)phenyl)-1,3,4-oxadiazole], the EC50 in test [1] and in test [2] was 1000 to 5000 nM throughout.

With `O=[N+]([O-])c1cccc(-c2nnc(-c3ccc(C(F)(F)F)cc3)o2)c1` [Entry 51, 2-(3-nitrophenyl)-5-(4-(trifluoromethyl)phenyl)-1,3,4-oxadiazole], in test [1], the “EC50 (ERRα) μM” value is reported as “i.a”. For the same compound, in test [2], the “EC50 (ERRγ) μM” value is “i.a”.

For `O=[N+]([O-])c1ccc(-c2nnc(-c3ccc(C(F)(F)F)cc3)o2)cc1` [Entry 52, 2-(4-nitrophenyl)-5-(4-(trifluoromethyl)phenyl)-1,3,4-oxadiazole], the 50% effective concentration (EC50) in test [1] and in test [2] was above 5000 nM throughout.

As to `FC(F)(F)c1ccc(-c2nnc(-c3ccccc3Cl)o2)cc1` [Entry 53, 2-(2-chlorophenyl)-5-(4-(trifluoromethyl)phenyl)-1,3,4-oxadiazole], the figures for the EC50 in test [1] and in test [2] were below 1000 nM and 1000 to 5000 nM, respectively.

Turning to `COc1cccc(-c2nnc(-c3ccc(C(F)(F)F)cc3)o2)c1` [Entry 54, 2-(3-methoxyphenyl)-5-(4-(trifluoromethyl)phenyl)-1,3,4-oxadiazole], the EC50 in test [1] and in test [2] was above 5000 nM throughout.

Consider `COc1ccc(-c2nnc(-c3ccc(C(F)(F)F)cc3)o2)cc1` [Entry 55, 2-(4-methoxyphenyl)-5-(4-(trifluoromethyl)phenyl)-1,3,4-oxadiazole], for which the “EC50 (ERRα) μM” value in test [1] is given as “i.a”. The “EC50 (ERRγ) μM” value in test [2] is recorded as “i.a”.

On to `FC(F)(F)c1cccc(-c2nnc(-c3ccccc3)o2)c1` [Entry 56, 2-phenyl-5-(3-(trifluoromethyl)phenyl)-1,3,4-oxadiazole], for which the 50% effective concentration (EC50) in test [1] and in test [2] was below 1000 nM each time.

On to `FC(F)(F)c1cccc(-c2nnc(-c3ccco3)o2)c1` [Entry 57, 2-(furan-2-yl)-5-(3-(trifluoromethyl)phenyl)-1,3,4-oxadiazole], for which the EC50 (commonly the concentration at which the effect is half-maximal) in test [1] was below 1000 nM; in test [2], 1000 to 5000 nM.

Turning to `FC(F)(F)c1cccc(-c2nnc(-c3cccs3)o2)c1` [Entry 58, 2-(thiophen-2-yl)-5-(3-(trifluoromethyl)phenyl)-1,3,4-oxadiazole], the EC50 in test [1] and in test [2] was below 1000 nM each time.

Consider `FC(F)(F)c1cccc(-c2nnc(-c3ccnc4ccccc34)o2)c1` [Entry 59, 2-(quinolin-4-yl)-5-(3-(trifluoromethyl)phenyl)-1,3,4-oxadiazole], for which the EC50 was below 1000 nM in test [1] and 1000 to 5000 nM in test [2].

For `FC(F)(F)c1cccc(-c2nnc(-c3ccc4ccccc4n3)o2)c1` [Entry 60, 2-(quinolin-2-yl)-5-(3-(trifluoromethyl)phenyl)-1,3,4-oxadiazole], the half-maximal effective concentration (EC50) in test [1] and in test [2] was 1000 to 5000 nM in each case.

In the case of `FC(F)(F)c1cccc(-c2nnc(-c3ccccn3)o2)c1` [Entry 61, 2-(pyridin-2-yl)-5-(3-(trifluoromethyl)phenyl)-1,3,4-oxadiazole], the EC50 in test [1] and in test [2] was below 1000 nM in each case.

As to `O=[N+]([O-])c1ccccc1-c1nnc(-c2cccc(C(F)(F)F)c2)o1` [Entry 62, 2-(2-nitrophenyl)-5-(3-(trifluoromethyl)phenyl)-1,3,4-oxadiazole], the half-maximal effective concentration (EC50) in test [1] and in test [2] was 1000 to 5000 nM each time.

For the compound `O=[N+]([O-])c1cccc(-c2nnc(-c3cccc(C(F)(F)F)c3)o2)c1` [Entry 63, 2-(3-nitrophenyl)-5-(3-(trifluoromethyl)phenyl)-1,3,4-oxadiazole], the figures for the concentration giving a half-maximal response (EC50) in test [1] and in test [2] were 1000 to 5000 nM and above 5000 nM, respectively.

As to `FC(F)(F)c1cccc(-c2nnc(-c3ccccc3Cl)o2)c1` [Entry 65, 2-(2-chlorophenyl)-5-(3-(trifluoromethyl)phenyl)-1,3,4-oxadiazole], the results for the EC50 in test [1] and in test [2] were 1000 to 5000 nM and above 5000 nM, respectively.

`COc1cccc(-c2nnc(-c3cccc(C(F)(F)F)c3)o2)c1` [Entry 66, 2-(3-methoxyphenyl)-5-(3-(trifluoromethyl)phenyl)-1,3,4-oxadiazole]: the EC50 in test [1] and in test [2] was 1000 to 5000 nM in each case.

Regarding `Nc1ccccc1-c1nnc(-c2ccccc2)o1` [Entry 68, 2-(5-phenyl-1,3,4-oxadiazol-2-yl)aniline], the EC50 in test [1] and in test [2] was 1000 to 5000 nM throughout.

As to `Nc1cccc(-c2nnc(-c3ccccc3)o2)c1` [Entry 69, 3-(5-phenyl-1,3,4-oxadiazol-2-yl)aniline], the half-maximal effective concentration (EC50) in test [1] and in test [2] was below 1000 nM in each case.

Take `Nc1ccc(-c2nnc(-c3ccccc3)o2)cc1` [Entry 70, 4-(5-phenyl-1,3,4-oxadiazol-2-yl)aniline]: the EC50 in test [1] and in test [2] was below 1000 nM each time.

As for `COc1ccc(-c2nnc(-c3ccccc3)o2)c(N)c1` [Entry 71, 5-methoxy-2-(5-phenyl-1,3,4-oxadiazol-2-yl)aniline], the EC50 in test [1] and in test [2] was below 1000 nM throughout.

For `Nc1cc(Br)ccc1-c1nnc(-c2ccccc2)o1` [Entry 72, 5-bromo-2-(5-phenyl-1,3,4-oxadiazol-2-yl)aniline], the EC50 in test [1] was below 1000 nM; in test [2] it was 1000 to 5000 nM.

`COc1ccc(-c2nnc(-c3ccccc3N)o2)cc1` [Entry 74, 2-(5-(4-methoxyphenyl)-1,3,4-oxadiazol-2-yl)aniline]: the EC50 in test [1] and in test [2] was below 1000 nM each time.

Take `CC(C)(C)c1ccc(-c2nnc(-c3ccccc3N)o2)cc1` [Entry 75, 2-(5-(4-(tert-butyl)phenyl)-1,3,4-oxadiazol-2-yl)aniline]: the concentration giving a half-maximal response (EC50) in test [1] and in test [2] was below 1000 nM throughout.

On to `Cc1ccc(-c2nnc(-c3ccccc3[N+](=O)[O-])o2)o1` [Entry 76, 2-(5-methylfuran-2-yl)-5-(2-nitrophenyl)-1,3,4-oxadiazole], for which the 50% effective concentration (EC50) in test [1] and in test [2] was 1000 to 5000 nM in each case.

For the compound `O=[N+]([O-])c1ccccc1-c1nnc(-c2ccccc2)o1` [Entry 80, 2-(2-nitrophenyl)-5-phenyl-1,3,4-oxadiazole], the EC50 in test [1] and in test [2] was 1000 to 5000 nM in each case.

Turning to `O=[N+]([O-])c1cccc(-c2nnc(-c3ccccc3)o2)c1` [Entry 81, 2-(3-nitrophenyl)-5-phenyl-1,3,4-oxadiazole], the EC50 in test [1] and in test [2] was 1000 to 5000 nM each time.

Source of the values: patent US20260274807A1 (University of Health Sciences and Pharmacy in St. Louis, priority 2023, published 2026).
